Measurements as given in article PMC8624133, “10th Trends in Medical Mycology Held on 8 to 11 October 2021, Aberdeen, Scotland, Organized by the European Confederation of Medical Mycology (ECMM)” (Journal of Fungi, 2021).
Converted amounts (≈) assume the structure as drawn. Where two headings read alike, the source gives them in different places.

Tests used:
[1] = test system: C. auris clinical strains; assay: organism not typed; assay type: cell-based, Candida auris; details: for MIC: range, 78 strains from patients with COVID-19
McLDM strains = assay: EUCAST MIC, S. cerevisiae overexpressing M. circinelloides LDM, resistance phenotypes; assay type: cell-based, Saccharomyces cerevisiae
[2] = test system: biofilm of filamentous fungi; assay: Biofilm XTT-menadione assay; assay type: cell-based
Protocol: Materials & Methods: Eight strains are studied: Fusarium solani, Fusarium dimerum, Lomentospora prolificans, Scedosporium apiospermum, Aspergillus flavus, Aspergillus fumigatus and two azole resistant A. fumigatus.
Biofilms were formed after a 90-min adhesion phase followed by the addition of RPMI medium and after a 48 h at 37 °C. Antifungals at different concentrations were added, either after the adhesion phase or after the 48 h of incubation to study their effect on the formation and on the preformed biofilm. After washing, a mixture of XTT-menadione was added to the wells. After 60 min at 37 °C, the OD (optical density) is measured at 450 and 630 nm. An optical microscope observation allows the visualization of elements of the biofilm.

Trichosporon isolates = assay: CLSI broth microdilution; assay type: cell-based, Trichosporon spp.
[3] = test system: Exophiala phaeomuriformis; assay: MIC, CLSI M27-A3; assay type: cell-based; details: read-out: MIC values
Summary of the method: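 Isolate recovered from aviation kerosene by 0.22 μm membrane filtration, grown on potato dextrose agar at 30 °C for seven days and identified by ITS sequencing. Susceptibility to clinical antifungals tested per CLSI M27-A3.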

[4] = test system: Rasamsonia argillacea species complex; assay: Antifungal susceptibility testing; assay type: cell-based; details: sputum isolate of a CF patient
C. albicans [5] = assay: Candidemia Netherlands, MIC distributions against EUCAST ECOFF; assay type: cell-based, Candida albicans
C. glabrata [6] = assay: as above; assay type: cell-based, Candida glabrata
C. parapsilosis [7] = assay: Vitek and EUCAST microdilution susceptibility; assay type: cell-based, Candida parapsilosis; details: Lodderomyces parapsilosis
Cryptococcal isolates = assay: CLSI broth micro dilution; assay type: cell-based, Cryptococcus neoformans, C. gattii
F. verticillioides = assay: Etest susceptibility; assay type: cell-based, Fusarium verticillioides
C. auris = assay: CLSI M27-A3 broth microdilution; assay type: cell-based, Candida auris; details: for MIC: Candidozyma auris, read-out: GM MIC
[8] = test system: nine strains of Candida spp.; assay: CLSI M27-A3 broth microdilution; assay type: cell-based; details: nine strains; for MIC: Candida, read-out: GM MIC
C. albicans [9] = assay type: cell-based, Candida albicans
C. parapsilosis [10] = assay type: cell-based, Candida parapsilosis
C. glabrata [11] = assay type: cell-based, Candida glabrata
C. tropicalis = assay type: cell-based, Candida tropicalis
C. krusei = assay type: cell-based, Candida krusei
Other species of Candida = assay type: cell-based, Candida spp.
C. fermentati = assay: EUCAST E. Def 7.3.2 microdilution; assay type: cell-based, Candida fermentati; details: n = 2
[12] = test system: A. fumigatus clinical isolates; assay: Susceptibility of clinical isolates from CF patients; details: all 10 clinical isolates
McLDM-F5-CPR = assay: microbe, parasite or virus in culture; assay type: cell-based, Saccharomyces cerevisiae AD2Δgal; details: Saccharomyces cerevisiae, read-out: mean MIC
McLDM-F5 = assay: microbe, parasite or virus in culture; assay type: cell-based, Saccharomyces cerevisiae AD2Δgal; details: Saccharomyces cerevisiae, read-out: mean MIC
McLDM-F1-CPR = assay: microbe, parasite or virus in culture; assay type: cell-based, Saccharomyces cerevisiae AD2Δgal; details: Saccharomyces cerevisiae, read-out: mean MIC
[13] = test system: C. auris Isolate B and Isolate C; assay: microbe, parasite or virus in culture; assay type: cell-based, Candida auris; details: for reduction in MIC: Isolate C with ERG11 WT in place of K143R
Candida catenulata = assay: CLSI M44 agar diffusion; assay type: cell-based
Candida lipolytica = assay: CLSI M44 agar diffusion; assay type: cell-based
A. niger complex = assay: EUCAST E.Def 9.3.2 susceptibility, CPA isolates; assay type: cell-based, Aspergillus niger complex; details: n = 7, ECOFFs
[14] = Triazole drug levels in ABPA patients with asthma; assay type: in vivo, human; details: 452 patients, Oct 2009 to March 2021
Text: Materials & Methods: This was a retrospective single-centre cohort study evaluating longitudinal outcomes in non-cystic fibrosis (CF) ABPA patients with underlying chronic lung disease (asthma), and description of treatment approaches. Statistical Analysis System (SAS) programming was used for data integration from multiple hospital electronic systems, for patient identification and data analysis. Criteria for inclusion were patients with a background of asthma, serum Total IgE >1000 IU/mL and a positive Aspergillus IgE, with or without a positive culture for A. fumigatus from a respiratory sample. Data collected included demographics, lung function severity, disease activity serological markers (Aspergillus IgE, Aspergillus IgG, Total IgE) and triazole levels. In this study the impact of fungal therapy on disease outcomes was assessed.

[15] = […], discs 25 μg fluconazole, 1 μg voriconazole

C[C@@H]1[C@H](O)[C@@H](C)/C=C/C=C/C=C/C=C/C=C/C=C/C=C/[C@H](O[C@@H]2O[C@H](C)[C@@H](O)[C@H](N)[C@@H]2O)C[C@@H]2O[C@](O)(C[C@@H](O)C[C@@H](O)[C@H](O)CC[C@@H](O)C[C@@H](O)CC(=O)O[C@H]1C)C[C@H](O)[C@H]2C(=O)O [amphotericin B]
MIC [1]: 0.12 to 2 µg/mL (≈ 0.13 to 2.16 µM)
MICs compared to AD2Δ (McLDM strains): not affected
number of strains with 100% inhibition of biofilm formation [2]: two
MIC (Trichosporon isolates; read-out: GM MIC): 0.9 µg/mL (≈ 0.974 µM)
MIC [3]: 2 µg/mL (≈ 2.16 µM)
minimal inhibitory concentrations (MIC) [4]: high minimal inhibitory concentrations
isolates within the wildtype distribution range (C. albicans [5]): 100%
isolates within the wildtype distribution range (C. glabrata [6]): 98.6%
MIC (C. parapsilosis [7]): 0.5 µg/mL (≈ 0.541 µM)
MIC50 (Cryptococcal isolates): 0.25 µg/mL (≈ 0.271 µM)
MIC90 (Cryptococcal isolates): 0.5 µg/mL (≈ 0.541 µM)
minimum inhibitory concentration (MIC), in words (F. verticillioides): lower values
MIC Range (C. auris): 0.125 to 2 µg/mL
MIC (C. auris): 0.43 µg/mL (≈ 0.465 µM)
MIC [8]: 0.13 µg/mL (≈ 0.141 µM)
MIC Range [8]: 0.03 to 2 µg/mL
I (intermediate) isolates, n (%) (C. albicans [9]): 4 (2%)
S (sensitive) isolates, n (%) (C. albicans [9]): 196 (97%)
I (intermediate) isolates, n (%) (C. parapsilosis [10]): 1 (0.6)
S (sensitive) isolates, n (%) (C. parapsilosis [10]): 169 (98.3%)
I (intermediate) isolates, n (%) (C. glabrata [11]): 2 (2.8%)
S (sensitive) isolates, n (%) (C. glabrata [11]): 69 (97.2%)
I (intermediate) isolates, n (%) (C. tropicalis): 0 (0%)
S (sensitive) isolates, n (%) (C. tropicalis): 57 (100%)
S (sensitive) isolates, n (%) (C. krusei): 7 (100%)
I (intermediate) isolates, n (%) (Other species of Candida): 0 (0%)
S (sensitive) isolates, n (%) (Other species of Candida): 26 (100%)
GM (C. fermentati): 0.125 µg/mL
MIC Range (C. fermentati): 0.125 to 0.25 µg/mL
susceptibility [12]: susceptible

OC(Cn1cncn1)(Cn1cncn1)c1ccc(F)cc1F [fluconazole]
Resistance ([1]; CDC tentative breakpoints): 100%
MIC (McLDM-F5-CPR): 128 µg/mL (≈ 418 µM)
MIC (McLDM-F5): 42.7 µg/mL (≈ 139 µM)
MIC (McLDM-F1-CPR): 14.7 µg/mL (≈ 47.9 µM)
MIC (Trichosporon isolates; read-out: high MICs): 8 µg/mL (≈ 26.1 µM)
decrease in MIC [13]: 4 fold
MIC ([13]; Candidozyma auris, Isolate B (ERG11 Y132F, TAC1B A583S)): 128 µg/mL (≈ 418 µM)
reduction in MIC [13]: 8 fold
isolates within the wildtype distribution range (C. albicans [5]): 96.8%
isolates within the wildtype distribution range (C. glabrata [6]): 83.6%
MIC (C. parapsilosis [7]): 8 µg/mL (≈ 26.1 µM)
MIC50 (Cryptococcal isolates): 1 µg/mL (≈ 3.27 µM)
MIC90 (Cryptococcal isolates): 4 µg/mL (≈ 13.1 µM)
minimum inhibitory concentration (MIC), in words (F. verticillioides): high values
MIC Range (C. auris): 1 to 32 µg/mL
MIC (C. auris): 5.26 µg/mL (≈ 17.2 µM)
MIC [8]: 4.66 µg/mL (≈ 15.2 µM)
MIC Range [8]: 0.5 to 32 µg/mL
I (intermediate) isolates, n (%) (C. albicans [9]): 0 (0%)
R (resistant) isolates, n (%) (C. albicans [9]): 3 (1.5%)
S (sensitive) isolates, n (%) (C. albicans [9]): 199 (98.5%)
I (intermediate) isolates, n (%) (C. parapsilosis [10]): 0 (0%)
R (resistant) isolates, n (%) (C. parapsilosis [10]): 2 (1.2%)
S (sensitive) isolates, n (%) (C. parapsilosis [10]): 171 (98.8%)
I (intermediate) isolates, n (%) (C. glabrata [11]): 3 (4.2%)
R (resistant) isolates, n (%) (C. glabrata [11]): 12 (16.9%)
S (sensitive) isolates, n (%) (C. glabrata [11]): 56 (78.9%)
I (intermediate) isolates, n (%) (C. tropicalis): 0 (0%)
R (resistant) isolates, n (%) (C. tropicalis): 0 (0%)
S (sensitive) isolates, n (%) (C. tropicalis): 57 (100%)
I (intermediate) isolates, n (%) (Other species of Candida): 0 (0%)
R (resistant) isolates, n (%) (Other species of Candida): 0 (0%)
S (sensitive) isolates, n (%) (Other species of Candida): 25 (100%)
GM (C. fermentati): 2 µg/mL
MIC Range (C. fermentati): 2 µg/mL (≈ 6.53 µM)
resistant isolates (Candida catenulata; [15]): 19%
resistant isolates (Candida lipolytica; [15]): 67%

CCC(C)n1ncn(-c2ccc(N3CCN(c4ccc(OCC5COC(Cn6cncn6)(c6ccc(Cl)cc6Cl)O5)cc4)CC3)cc2)c1=O (centres unmarked) [itraconazole]
Non-wild type isolates (A. niger complex): 29%
MIC [1]: 0.12 to 16 µg/mL (≈ 0.17 to 22.7 µM)
MICs compared to AD2Δ (McLDM strains): not affected
median trough drug level [14]: 0.76 mg/L
MIC [3]: 0.25 µg/mL (≈ 0.354 µM)
change of MIC [13]: largely unchanged
reduction in MIC [13]: unchanged
minimum inhibitory concentration (MIC), in words (F. verticillioides): high values
MIC Range (C. auris): 0.125 to 1 µg/mL
MIC (C. auris): 0.12 µg/mL (≈ 0.17 µM)
MIC [8]: 0.11 µg/mL (≈ 0.156 µM)
susceptibility [12]: susceptible

C[C@@H](c1ncncc1F)[C@](O)(Cn1cncn1)c1ccc(F)cc1F [voriconazole]
Non-wild type isolates (A. niger complex): 29%
MIC [1]: 0.06 to 8 µg/mL (≈ 0.172 to 22.9 µM)
MIC (McLDM-F5-CPR): 4 µg/mL (≈ 11.5 µM)
MIC (McLDM-F5): 0.58 µg/mL (≈ 1.66 µM)
MIC (McLDM-F1-CPR): 0.29 µg/mL (≈ 0.83 µM)
median trough drug level [14]: 0.82 mg/L
number of strains with 100% inhibition of biofilm formation [2]: one
MIC (Trichosporon isolates; read-out: GM MIC): 0.075 µg/mL (≈ 0.215 µM)
MIC [3]: 0.25 µg/mL (≈ 0.716 µM)
reduction in MIC [13]: 2 fold
minimal inhibitory concentrations (MIC) [4]: high minimal inhibitory concentrations
minimum inhibitory concentration (MIC), in words (F. verticillioides): lower values
I (intermediate) isolates, n (%) (C. albicans [9]): 0 (0%)
R (resistant) isolates, n (%) (C. albicans [9]): S 200 (99%) I 0 (0%) R 2 (1%)
S (sensitive) isolates, n (%) (C. albicans [9]): 200 (99%)
I (intermediate) isolates, n (%) (C. parapsilosis [10]): 1 (0.6%)
R (resistant) isolates, n (%) (C. parapsilosis [10]): S 170 (98.8%) I 1 (0.6%) R 1 (0.6%)
S (sensitive) isolates, n (%) (C. parapsilosis [10]): 170 (98.8%)
I (intermediate) isolates, n (%) (C. glabrata [11]): 2 (2.8%)
R (resistant) isolates, n (%) (C. glabrata [11]): S 62 (87.3%) I 2 (2.8%) R 7 (9.9%)
S (sensitive) isolates, n (%) (C. glabrata [11]): 62 (87.3%)
I (intermediate) isolates, n (%) (C. tropicalis): 0 (0%)
R (resistant) isolates, n (%) (C. tropicalis): S 57 (100%) I 0 (0%) R 0 (0%)
S (sensitive) isolates, n (%) (C. tropicalis): 57 (100%)
S (sensitive) isolates, n (%) (C. krusei): 7 (100%)
I (intermediate) isolates, n (%) (Other species of Candida): 0 (0%)
R (resistant) isolates, n (%) (Other species of Candida): S 26 (100%) I 0 (0%) R 0 (0%)
S (sensitive) isolates, n (%) (Other species of Candida): 26 (100%)
resistant isolates (Candida catenulata): 19%
resistant isolates (Candida lipolytica): 58%
susceptibility [12]: susceptible
